Measurements from patent US8841414B1, “Targeted delivery of therapeutic peptides by thermally responsive biopolymers” (University of Mississippi Medical Center, priority 2006, dated 2014).
Like-named read-outs stand apart in the source and are kept apart here.

Tests used:
Panc-1 cells = assay: Panc-1 proliferation with 5-FU alone or after Bac7-ELP1-p21 pretreatment (MTS); type: cell-based, human
Protocol: Panc-1 cells were treated for 72 h with 5-F-U with or without pre-treatment with Bac7-ELP1-p21 for 1 hr at 42° C. Cell proliferation was assessed by the MTS assay. Bars, SEM of 3 experiments.
Resistance to Current Chemotherapeutic Agents: One of the therapeutic agents currently used in the clinical setting for pancreatic cancer is 5-Fluorouracil (5-FU).

MCF-7 cells [1] = assay: Drug IC50 with and without polypeptide pretreatment (MTS cell viability assay); type: cell-based; conditions: for IC50: Homo sapiens, MCF7
Protocol: The effect of drug concentration on cell viability for Dox (A) or etoposide (B) was determined with and without Pen-ELP-H1 pretreatment. Cells were pretreated on day 1 with 20 μM Pen-ELP-H1 and treated on day 4 with drug. Viability was determined on day 7 using the MTS cell viability assay. A single representative experiment is shown (error bars=SD).
The ability of Pen-ELP-H1 to enhance the effectiveness of chemotherapeutic agents was tested in MCF-7 breast cancer cells. Cells were treated on day 1 with 20 μM Pen-ELP-H1 or a control polypeptide which lacks the c-Myc inhibitory sequence (Pen-ELP) for 1 h, rinsed, and placed in fresh media for 3 days. On day 4, the cells were exposed to the drugs at various concentrations for 72 h, and viability was assessed using the MTS cell viability assay. […] Data from the MTS assay was averaged and fit using an exponential equation in order to calculate the IC50 with and without pretreatment.
Table 3. […] Statistical significance was assessed using an unpaired Student's t-test.

MCF-7 cells [2] = assay: Dox/etoposide toxicity after pretreatment with DFMO and/or Pen-ELP-H1 (MTS); type: cell-based; conditions: then Dox 750 nM for 72 h
Protocol: FIG. 33-1 is a set of graphs that show proliferation with DFMO and Dox or Etoposide. Cells were pretreated with 20 μM Pen-ELP-H1 or 50 μM DFMO on day 1, and treated with 750 nM Dox (A) or 200 μM etoposide (B) on day 4. Cell viability was determined on day 7 using the MTS cell viability assay. Results represent the mean±SEM of 3 independent experiments.
As a transcription factor, c-Myc influences the transcription levels of a large variety of genes. One of the genes under c-Myc control encodes the enzyme ODC (140). ODC catalyzes the first and rate-limiting step in the synthesis of cellular polyamines (148). […] Above, it was shown that interruption of the c-Myc/Max heterodimer by the Pen-ELP-H1 polypeptide caused a reduction in the steady-state levels of ODC mRNA to less than 40% of control levels (93). This observation led to the hypothesis that modulation of Dox and etoposide toxicity may be due to a reduction in the amount of ODC in the cell. In order to test this hypothesis, a combination of pretreatment with the ODC inhibitor DFMO and/or Pen-ELP-H1 was used in the Dox and etoposide toxicity assay. MCF-7 cells were pretreated with Pen-ELP-H1 (20 μM), DFMO (50 μM), or both before a 72 h exposure to Dox (750 nM) or etoposide (200 μM). […] Similar results were obtained with Pen-ELP-H1 and/or DFMO combined with etoposide (FIG. 33-1 B).

MES-SA cells = assay: Drug IC50 with and without Pen-ELP-H1 pretreatment; type: cell-based; conditions: for IC50: Homo sapiens
Protocol: (§1) Table 4. IC50 values were collected for HeLa and MES-SA cells. The Dox and etoposide IC50 was determined with and without Pen-ELP-H1 pretreatment. Curves were fit using an exponential equation, and the IC50 value shown represents the mean±SEM of at least 5 independent determinations each performed with 4 replicates per drug concentration. Statistical significance was assessed using an unpaired Student's t-test.

MCF-7 cells [3] = assay: Cell cycle distribution by BrdU and propidium iodide flow cytometry; type: cell-based; conditions: for G1 fraction / S phase fraction: day 5; for effect on cell cycle distribution: agent alone (Pen-ELP-H1 20 μM, Dox 100 nM, etoposide 1 μM)
Protocol: FIG. 31 is a set of graphs that show cell cycle analysis of MCF-7 Cells after Pen-ELP-H1 Pretreatment before Dox or Etoposide. A. Cells were pretreated with 20 μM Pen-ELP-H1 on day 1 and 100 nM Dox or 1 μM etoposide on day 4 and analyzed on day 5 by flow cytometry with BrdU and propidium iodide staining Raw data for a single representative experiment is shown. 4 independent experiments with Dox (B) and etoposide (C) were averaged. Percentages were determined by analysis of 5000 cells/sample, and results shown represent the mean±SEM.
To gain more insight into the effect of polypeptide and drug treatment, the cell cycle distribution of MCF-7 cells was examined. Cells were treated as above with 20 μM Pen-ELP-H1 on day 1 and Dox (100 nM) or etoposide (1 μM) on day 4. On day 5, the cells were pulsed with BrdU and stained with propidium iodide for flow cytometric analysis of the cell cycle distribution. BrdU was used to accurately estimate the fraction of cells in S-phase, and this was combined with propidium iodide staining to denote each phase of the cell cycle (FIG. 31A). […] The pattern observed with Dox was enhanced upon pretreatment with Pen-ELP-H1, where the G1 fraction increased from about 48% to 53%, and the S phase fraction was reduced from 8% to 5% as compared to treatment with Dox alone (FIG. 31B).

HeLa cells = assay: Drug IC50 with and without Pen-ELP-H1 pretreatment; type: cell-based, human; conditions: for IC50: Homo sapiens
Protocol: as §1

c-Myc = c-Myc (UniProt P01106); assay: cell-based or functional assay
UniProt P01106, sequence (P01106 whole entry): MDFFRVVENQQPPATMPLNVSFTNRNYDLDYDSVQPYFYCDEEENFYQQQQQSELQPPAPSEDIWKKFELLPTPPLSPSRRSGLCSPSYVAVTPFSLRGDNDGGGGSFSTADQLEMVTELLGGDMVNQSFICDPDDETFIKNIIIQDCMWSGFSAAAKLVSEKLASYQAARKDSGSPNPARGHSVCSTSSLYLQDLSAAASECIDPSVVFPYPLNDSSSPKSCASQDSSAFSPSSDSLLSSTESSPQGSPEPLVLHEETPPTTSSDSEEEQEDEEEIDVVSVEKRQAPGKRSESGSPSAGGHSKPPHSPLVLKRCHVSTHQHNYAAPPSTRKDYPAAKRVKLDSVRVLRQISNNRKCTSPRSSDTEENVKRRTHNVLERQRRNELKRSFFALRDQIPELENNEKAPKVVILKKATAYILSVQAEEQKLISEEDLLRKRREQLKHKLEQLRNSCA

[4] = 20 μM Pen-ELP on day 1, drug on day 4 for 72 h, read-out: IC50 after Pen-ELP pretreatment (mean ± SEM)
[5] = 20 μM Pen-ELP-H1 on day 1, drug on day 4 for 72 h, read-out: IC50 after Pen-ELP-H1 pretreatment (mean ± SEM)
[6] = no pretreatment, 72 h drug exposure, read-out: IC50 (mean ± SEM)
[7] = no pretreatment, read-out: IC50 (mean ± SEM)
[8] = read-out: IC50 after Pen-ELP-H1 pretreatment (mean ± SEM)
[9] = Dox 100 nM after 20 μM Pen-ELP-H1 pretreatment

| Compound | IC50 (MCF-7 cells [1]; [4]) [nM] | IC50 (MCF-7 cells [1]; [5]) [nM] | IC50 (MCF-7 cells [1]; [6]) [nM] | reduction of IC50 by Pen-ELP-H1 pretreatment (MES-SA cells) [fold] | IC50 (MES-SA cells; [7]) [nM] | IC50 (MES-SA cells; [8]) [nM] | reduction in IC50 with Pen-ELP-H1 pretreatment (MCF-7 cells [1]; MCF-7) | effect on cell cycle distribution (MCF-7 cells [3]) | reduction of IC50 by Pen-ELP-H1 pretreatment (HeLa cells) [fold] | IC50 (HeLa cells; [7]) [nM] | IC50 (HeLa cells; [8]) [nM] | also measured |
| --- | --- | --- | --- | --- | --- | --- | --- | --- | --- | --- | --- | --- |
| O=c1[nH]cc(F)c(=O)[nH]1 [5-FU, 5-Fluorouracil] |  |  |  |  |  |  |  |  |  |  |  | sensitivity of Panc-1 cells to treatment (Panc-1 cells; 72 h): highly resistant; effect of increasing the concentration on cell proliferation (Panc-1 cells; beyond 10 μM, 72 h): no increasing effect on cell proliferation; cell proliferation after pretreatment with Bac7-ELP1-p21 (Panc-1 cells; pretreated 1 h at 42° C. with Bac7-ELP1-p21, then 5-FU 72 h): dramatically reduced |
| CC[C@@]1(O)C(=O)OCc2c1cc1n(c2=O)Cc2cc3ccccc3nc2-1 [Camptothecin] | 229 ± 46.4 | 235 ± 5.8 | 235 ± 9.8 |  |  |  |  |  |  |  |  | effect of Pen-ELP-H1 or Pen-ELP pretreatment on cell killing by the drug (MCF-7 cells [1]; MCF-7): no significant effect |
| NCCC[C@](N)(C(=O)O)C(F)F [DFMO, α-difluoromethylornithine] |  |  |  |  |  |  |  |  |  |  |  | enhancement of Dox-induced cell killing by pretreatment (MCF-7 cells [2]; Pen-ELP-H1 20 μM or DFMO 50 μM): enhanced the Dox-induced cell killing by similar amounts; enhancement of Dox toxicity by pretreatment with the combination of Pen-ELP-H1 and DFMO (MCF-7 cells [2]; Pen-ELP-H1 20 μM plus DFMO 50 μM): no greater enhancement of Dox toxicity than either agent used alone |
| COc1cccc2c1C(=O)c1c(O)c3c(c(O)c1C2=O)C[C@@](O)(C(=O)CO)C[C@@H]3O[C@H]1C[C@H](N)[C@H](O)[C@H](C)O1 [Doxorubicin] | 777 ± 75.1 | 504 ± 35.3 | 752 ± 21.6 | 2 | 33.7 ± 7.1 | 16.3 ± 1.6 | about 1.5 fold | arrest in G1 and G2/M at the expense of S phase | 1.5 | 13.9 ± 1.3 | 9.4 ± 1.2 | G1 fraction (MCF-7 cells [3]; [9]): 53%; S phase fraction (MCF-7 cells [3]; [9]): 5%; G1 fraction (MCF-7 cells [3]; Dox 100 nM alone): about 48%; S phase fraction (MCF-7 cells [3]; Dox 100 nM alone): 8% |
| COc1cc([C@@H]2c3cc4c(cc3[C@@H](O[C@@H]3O[C@@H]5CO[C@@H](C)O[C@H]5[C@H](O)[C@H]3O)[C@H]3COC(=O)[C@H]23)OCO4)cc(OC)c1O [Etoposide] | 187000 ± 13800 | 141000 ± 3500 | 210000 ± 12400 | 1.8 | 17300 ± 3100 | 9800 ± 3100 | about 1.5 fold | accumulation in both G1 and G2/M | 1.4 | 630 ± 59.2 | 465 ± 45.4 | effect on cell cycle distribution after Pen-ELP-H1 pretreatment (MCF-7 cells [3]; 20 μM Pen-ELP-H1 day 1, etoposide 1 μM day 4): slightly enhanced the etoposide-induced accumulation in G1 |
| Pen-ELP1-H1 |  |  |  |  |  |  |  |  |  |  |  | steady-state levels of ODC mRNA (% of control levels) (c-Myc): < 40 |
